Assays:
[1] = system: Bel-7402 human hepatic carcinoma; experiment: In vitro inhibition rate to tumor cells (MTT), Bel-7402; format: cell-based; settings: 50 μg/ml
Description: (§1) (1) Single cell suspension was seeded into 96-well plates (×3) (the cells was diluted in the PRMI-1640 minimum medium to 3×10^4 cells/ml, […] diluted cells/well). […] The experiments were performed in quadruplicate.
(§2) (2) The medium was removed. Solutions of the anti-tumor agents (15 compounds) were prepared in a freshly prepared medium at the concentrations indicated in the following Table. […] of the solution was added into each well. Incubation was continued for 48 hours.
(§3) (3) […] of 2 mg/ml MTT was added into each well, and incubated for 4 hours.
(§4) (4) The medium was removed from the well. The microplates were swiftly turned down to throw-off the medium. […] DMSO was added into each well, and vortexed at room temperature for 10 minutes.
(§5) (5) OD value (λ=570 nm) was measured with an Enzyme-Linked Detector.
(§6) (6) The inhibition rates (IR) of cell growth were respectively calculated based on the following equation: IR(%)=[1−(average OD of the experimental group/average OD of the control group)]×100%

[2] = system: SMMC-7721 human hepatic carcinoma; experiment: In vitro inhibition rate to tumor cells (MTT), SMMC-7721; format: cell-based; settings: 50 μg/ml
Description: as §1, §2, §3, §4, §5, §6

[3] = system: HL-60 human promyelocytic leukemia; experiment: In vitro inhibition rate to tumor cells (MTT), HL-60; format: cell-based; settings: 50 μg/ml
Description: as §1, §2, §3, §4, §5, §6

[4] = system: A-549 human lung adenocarcinoma; experiment: In vitro inhibition rate to tumor cells (MTT), A-549; format: cell-based; settings: 50 μg/ml
Description: as §1, §2, §3, §4, §5, §6

293 cells = experiment: Cell status of 293 cells treated with sample alone (herpes virus screening)
[5] = system: MCF-7 human mammary adenocarcinoma; experiment: In vitro inhibition rate to tumor cells (MTT), MCF-7; format: cell-based; settings: 50 μg/ml
Description: as §1, §2, §3, §4, §5, §6

[6] = system: LLC mouse Lewis lung carcinoma; experiment: In vitro inhibition rate to tumor cells (MTT), LLC; format: cell-based; settings: 50 μg/ml
Description: as §1, §2, §3, §4, §5, §6

[7] = system: U-937 human histocytic lymphoma; experiment: In vitro inhibition rate to tumor cells (MTT), U-937; format: cell-based; settings: 50 μg/ml
Description: as §1, §2, §3, §4, §5, §6

[8] = system: Hela human cervical carcinoma; experiment: In vitro inhibition rate to tumor cells (MTT), Hela; format: cell-based; settings: 50 μg/ml
Description: as §1, §2, §3, §4, §5, §6

[9] = system: mouse grafted sarcoma S-180; experiment: Activity against mouse grafted sarcoma S-180; format: in vivo, Kunming mice; settings: 1 mg/kg i.v., 6 doses; for Tumor weight: X ± SD, n = 10
Description: (1) Experimental animals: Kunming mice weighting 18-22 g;
(2) 100 mg/ml solutions of the 3 compounds were prepared, respectively, in water for injection (1% surface surfactant was added into the solution of Compound 6). 5-FU and camptothecine, 30 mg/kg and 1 mg/kg, respectively, were used as positive controls;
3. Route of Administration: Intravenous Injection.
(§7) The experiments were performed according to “Guideline for New Drugs (Western medicines) in Pre-clinical Stages” issued by Bureau of Drug Policy & Administration of the People's Republic of China, and the relevant methods in “Methodology of Pharmaceutical Experiments”, Xu Shuyun et al. ed. 120 male Kunming mice weighting […] were allowed to grow 3 days. No abnormality was observed. The mice were routinely inoculated in oxter with mouse sarcoma S-180, and weighted 4 hrs. after inoculation. The mice were randomly divided into 12 groups, 10 mice/group. Group 1 was given 0.3 ml of physiological saline as negative control; Group 2 was given 5-FU as positive control, 0.6 mg/mouse; Group 3 was given hydroxycamptothecine as positive control, 0.02 mg/mouse. Groups 4, 5 and 6 were injected with 10% Compound 6, 0.4 ml/mouse, 0.2 ml/mouse, and 0.1 ml/mouse, respectively. Groups 7, 8 and 9 were injected with 10% Compound 8, 0.4 ml/mouse, 0.2 ml/mouse, and 0.1 ml/mouse, respectively. Groups 10, 11, and 12 were injected with 10% Compound 20, 0.4 ml/mouse, 0.2 ml/mouse, and 0.1 ml/mouse, respectively. The tested compounds were administered on the next day after inoculation, once a day on alternate days, 6 doses totally administered. On the next day after the end dose, the mice were weighed and sacrificed. After the tumor was excised, body weight and tumor weight were recorded. The tumor inhibition rate was calculated based on the following formula: [(average tumor weight of the control groups−average tumor weight of the experimental groups)/average tumor weight of the control groups]×100%. The data was processed statistically. The above experiments were repeated three times.

[10] = system: mouse grafted uterine cervix cancer U14; experiment: Activity against mouse grafted uterine cervix cancer U14; format: in vivo, Kunming mice; settings: 1 mg/kg; for Tumor weight: X ± SD, n = 10
Description: as §7
(§8) The experiments were identical with the experiments for activity against mouse grafted sarcoma S-180, except the following:
(1) the tumor cell line inoculated was mouse grafted uterine cervix cancer U14;
(2) all the mice were female.

[11] = system: mouse grafted liver cancer H22; experiment: Activity against mouse grafted liver cancer H22; format: in vivo, Kunming mice; settings: for Tumor weight: X ± SD, n = 10
Description: as §7
The experiments were identical with the experiments for activity against mouse grafted sarcoma S-180, except that the cell line inoculated was liver cancer H22. The experiments were repeated three times.

mouse lung cancer Lewis = experiment: Activity against mouse grafted lung cancer Lewis; format: in vivo, Kunming mice; settings: Lewis, 1 mg/kg; for Tumor weight: X ± SD, n = 10
Description: as §7, §8
(1) the tumor cell line inoculated was mouse lung cancer Lewis;
(2) Compound 6, Compound 8 and Compound 21 were not tested for their activity;
(3) the mice were divided into six groups.

[12] = H22, first experiment, 1 mg/kg i.v., 6 doses
[13] = H22, second experiment, 1 mg/kg

Molecule: CC(C)C1CC23OC1(O)CC(=CO[N+](=O)[O-])C2CCC3C (stereo not shown) [Compound 19, Curcumol mononitrate]
- inhibition rate, Results (%) Bel-7402 ([1]; Table 1): 4.32%
- inhibition rate, Results (%) Bel-7402 ([1]; Table 2 (repeated screening)): 8.95%
- inhibition rate, Results (%) SMMC-7721 ([2]; Table 1): 23.01%
- inhibition rate, Results (%) SMMC-7721 ([2]; Table 2 (repeated screening)): 12.301%
- inhibition rate, Results (%) HL-60 ([3]; Table 1): 54.03%
- inhibition rate, Results (%) HL-60 ([3]; Table 2 (repeated screening)): 55.98%
- inhibition rate, Results (%) A-549 ([4]; Table 1): 2.51%
- inhibition rate, Results (%) A-549 ([4]; Table 2 (repeated screening)): 3.10%
- Cytopathy and cell status, Sample (293 cells; 200 μg/ml, 24 hrs): Apoptotic
- inhibition rate, Results (%) MCF-7 ([5]; Table 1): 12.6%
- inhibition rate, Results (%) MCF-7 ([5]; Table 2 (repeated screening)): 0.16%
- inhibition rate, Results (%) LLC ([6]; Table 1): −15.52%
- inhibition rate, Results (%) LLC ([6]; Table 2 (repeated screening)): −16.00%
- inhibition rate, Results (%) U-937 ([7]; Table 1): 50.97%
- inhibition rate, Results (%) U-937 ([7]; Table 2 (repeated screening)): 42.23%
- inhibition rate, Results (%) Hela ([8]; Table 1): 55.67%
- inhibition rate, Results (%) Hela ([8]; Table 2 (repeated screening)): 50.27%

Molecule: CC(C)C1CC23OC1(O)CC(C)(N1CCNCC1)C2CCC3C (stereo not shown) [Compound 43, Curcumol piperazine without double bond]
- inhibition rate, Results (%) Bel-7402 ([1]; Table 1): 9.15%
- inhibition rate, Results (%) Bel-7402 ([1]; Table 2 (repeated screening)): −4.98%
- inhibition rate, Results (%) SMMC-7721 ([2]; Table 1): −10.12%
- inhibition rate, Results (%) SMMC-7721 ([2]; Table 2 (repeated screening)): −8.98%
- inhibition rate, Results (%) HL-60 ([3]; Table 1): 2.56%
- inhibition rate, Results (%) HL-60 ([3]; Table 2 (repeated screening)): 2.00%
- inhibition rate, Results (%) A-549 ([4]; Table 1): 13.39%
- inhibition rate, Results (%) A-549 ([4]; Table 2 (repeated screening)): 11.24%
- Cytopathy and cell status, Sample (293 cells; 50 μg/ml, 293 cells without virus, 12 hrs): Good
- inhibition rate, Results (%) MCF-7 ([5]; Table 1): 43.21%
- inhibition rate, Results (%) MCF-7 ([5]; Table 2 (repeated screening)): 41.94%
- inhibition rate, Results (%) LLC ([6]; Table 1): −2.06%
- inhibition rate, Results (%) LLC ([6]; Table 2 (repeated screening)): −11.23%
- inhibition rate, Results (%) U-937 ([7]; Table 1): 16.32%
- inhibition rate, Results (%) U-937 ([7]; Table 2 (repeated screening)): 12.30%
- inhibition rate, Results (%) Hela ([8]; Table 1): 62.13%
- inhibition rate, Results (%) Hela ([8]; Table 2 (repeated screening)): 59.66%

Molecule: hydroxycamptothecine [reference compound]
- Average weight (g)-after administration ([9]; S-180, first experiment): 20.8 g
- Inhibition rate (%) ([9]; S-180, first experiment): 65.2%
- Tumor weight ([9]; S-180, first experiment): 0.87 ± 0.28 g
- Average weight(g)-after administration ([9]; S-180, second experiment): 20.8 g
- Inhibition rate (%) ([9]; S-180, second experiment): 64.6%
- Tumor weight ([9]; S-180, second experiment): 0.92 ± 0.38 g
- Average weight(g)-after administration ([10]; U14, first experiment): 22.2 g
- Inhibition rate (%) ([10]; U14, first experiment): 45.8%
- Tumor weight ([10]; U14, first experiment): 1.90 ± 0.28 g
- Average weight(g)-after administration ([10]; U14, second experiment): 22.3 g
- Inhibition rate (%) ([10]; U14, second experiment): 46.5%
- Tumor weight ([10]; U14, second experiment): 1.82 ± 0.28 g
- Average weight (g)-after administration ([10]; U14, third experiment): 21.3 g
- Inhibition rate (%) ([10]; U14, third experiment): 45.6%
- Tumor weight ([10]; U14, third experiment): 1.96 ± 0.28 g
- Average weight(g)-after administration [11, 12]: 20.5 g
- Inhibition rate (%) [11, 12]: 63.9%
- Tumor weight [11, 12]: 1.12 ± 0.28 g
- Average weight(g)-after administration [11, 13]: 20.2 g
- Inhibition rate (%) [11, 13]: 66.9%
- Tumor weight [11, 13]: 1.00 ± 0.28 g
- Average weight (g)-after administration ([11]; H22, third experiment, 1 mg/kg): 22.2 g
- Inhibition rate (%) ([11]; H22, third experiment, 1 mg/kg): 65.3%
- Tumor weight ([11]; H22, third experiment, 1 mg/kg): 1.05 ± 0.28 g
- Average weight (g)-after administration (mouse lung cancer Lewis; second experiment): 21.0 g
- Inhibition rate (%) (mouse lung cancer Lewis; second experiment): 50.2%
- Tumor weight (mouse lung cancer Lewis; second experiment): 1.20 ± 0.28 g
- Average weight (g)-after administration (mouse lung cancer Lewis; third experiment): 21.5 g
- Inhibition rate (%) (mouse lung cancer Lewis; third experiment): 51.9%
- Tumor weight (mouse lung cancer Lewis; third experiment): 1.30 ± 0.28 g

From patent US7700584B2 (Hangzhou Minsheng Pharmaceuticals Co., Ltd., priority 2004, dated 2010)
